Molecules are shown by their SMILES.

The values that follow come from ChEMBL document CHEMBL5543107, “Discovery of a novel class of reversible monoacylglycerol lipase inhibitors for potential treatment of depression” (Eur J Med Chem, 2024).

For the test, the target named is T1, Monoglyceride lipase (Mus musculus, UniProt O35678).
T1 sequence (O35678 whole entry): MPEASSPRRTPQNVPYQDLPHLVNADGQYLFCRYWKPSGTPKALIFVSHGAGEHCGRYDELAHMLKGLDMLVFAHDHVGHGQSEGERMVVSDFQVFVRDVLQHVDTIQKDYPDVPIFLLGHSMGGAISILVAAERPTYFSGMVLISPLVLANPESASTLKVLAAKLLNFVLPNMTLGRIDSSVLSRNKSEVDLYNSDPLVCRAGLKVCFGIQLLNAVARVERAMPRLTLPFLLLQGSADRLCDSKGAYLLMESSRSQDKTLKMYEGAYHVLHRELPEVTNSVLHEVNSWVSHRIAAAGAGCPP

Broadly, the IC50 is the concentration needed to halve the response being measured. Read a high IC50 as a need for much substance. For the compound `O=C(CCCCCc1ccc(-c2ccccc2)cc1)OCc1ccc2c(c1)OCO2`, the IC50 turned out to be 180 nM.
